Assay results published in patent US8569247B2 (priority 2009, dated 2013).
Like-named read-outs stand apart in the source and are kept apart here.

What was measured:
[1] = Content of test solution before and after incubation (stability under CaCo-2 test conditions); format: in vitro ADME; conditions: for Area-% Fingerprint of test solution after 120 minutes / Area-% Fingerprint of test solution prior to incubation: Gardenia extract test solution
Method: (§1) CaCo-2 cells were incubated with 10 mg Gardenia extract and 10 mg crocetin/100 mL medium. The test compounds were dissolved in methanol and then diluted with incubation medium. Incubations were performed at 37° C. for 30, 60 and 120 minutes.
The content of crocetin related esters and crocetin in the sample used for incubation testing was determined.
Table 7 provides the content of test solution prior to incubation:
Table 8 provides the corresponding data for the test solution obtained after 120 minutes.
(§2) An appropriate amount of standard was transferred into a 10 mL flask and dissolved in 3 mL methanol and filled to the mark with water. Dilutions were prepared in mobile phase.
(§3) Quantification was performed by external standardization after linear regression analysis.

[2] = tested on: CaCo-2 cells; assay: Cellular uptake of crocin and crocetin in CaCo-2 cells (cellular content); format: in vitro ADME; conditions: for HPLC peaks in the cells: 10 mg Gardenia extract/100 mL medium; for Crocetin (HPLC) concentration in the cells: 10 mg crocetin/100 mL medium
Method: as §1
Cells were grown in 75 cm^2 culture-flasks (T75) and sub-cultured after one week (every other day washed with PBS buffer, removed with trypsin and transferred to a new culture flask).
The cells were washed with PBS buffer, incubated with 4 ml medium containing the suspended samples for 30, 60 or 120 minutes.
After the corresponding incubation time, the cells were washed with PBS buffer/MeOH=70/30 and removed using 1 ml of MeOH. Cells were sonicated 3 times for 30 seconds, centrifuged for 10 min and the pellets were discarded. The supernatant was used as sample for HPLC and UV/VIS-analysis.
as §2, §3

[3] = stated as known property; cited from earlier work
[4] = tested on: CaCo-2 cells; assay: CaCo-2 uptake trial extended with gardenia hydrolysate (%-uptake by HPLC/UV peak areas); format: in vitro ADME; conditions: sample 20 mg/100 ml; proportion on overall absorption
Method: The tests were performed in replicate and the results are expressed as %-uptake based on peak areas measured by HPLC/UV.

[5] = target: human acetylcholinesterase (Homo sapiens, UniProt P22303); assay: biochemical; format: biochemical; conditions: for inhibition at 500 µg/mL: read-out: Inhibition of AChE activity %; for activity at 500 µg/mL: read-out: AChE activity %
Method: Inhibitor solution: 10 mg of the corresponding samples were respectively dissolved in 1 ml methanol.
Chromogen solution: 0.1 M Sodium phosphate buffer (pH=8, NaOH) was mixed with solution A at a ratio of 30:1.
Solution A: 39.6 mg 5,5′-dithio-bis[2-nitrobenzoic acid] and 15.0 mg NaHCO3 were weighed into a 10 ml flask and filled to the mark with 0.1 M Sodium-phosphate buffer (pH=7, NaOH).
Enzyme solution: A solution of human acetylcholinesterase containing 70 IU enzyme activity/ml H2O was prepared.
Substrate solution: 115.7 mg acetylthiocholine-iodide was weighed into a 10 ml flask and filled to the mark with H2O.
10 μl inhibitor solution was mixed with 185 μl chromogen solution and 10 μl enzyme solution. The solution was incubated for 10 minutes at room temperature with shaking. […] substrate solution was added and the increase in absorption at 412 nm was recorded until no more increase was observed (3-5 minutes).

[6] = Solubility in water / aqueous alkaline solution; format: physicochemical; conditions: found by the applicant
[7] = after 120 minutes incubation at 37° C.
[8] = sample 0.50 mg/ml, Neg Control = 0.0
[9] = sample 0.50 mg/ml, Neg Control = 100.0

human acetylcholinesterase, sequence (P22303 32-614): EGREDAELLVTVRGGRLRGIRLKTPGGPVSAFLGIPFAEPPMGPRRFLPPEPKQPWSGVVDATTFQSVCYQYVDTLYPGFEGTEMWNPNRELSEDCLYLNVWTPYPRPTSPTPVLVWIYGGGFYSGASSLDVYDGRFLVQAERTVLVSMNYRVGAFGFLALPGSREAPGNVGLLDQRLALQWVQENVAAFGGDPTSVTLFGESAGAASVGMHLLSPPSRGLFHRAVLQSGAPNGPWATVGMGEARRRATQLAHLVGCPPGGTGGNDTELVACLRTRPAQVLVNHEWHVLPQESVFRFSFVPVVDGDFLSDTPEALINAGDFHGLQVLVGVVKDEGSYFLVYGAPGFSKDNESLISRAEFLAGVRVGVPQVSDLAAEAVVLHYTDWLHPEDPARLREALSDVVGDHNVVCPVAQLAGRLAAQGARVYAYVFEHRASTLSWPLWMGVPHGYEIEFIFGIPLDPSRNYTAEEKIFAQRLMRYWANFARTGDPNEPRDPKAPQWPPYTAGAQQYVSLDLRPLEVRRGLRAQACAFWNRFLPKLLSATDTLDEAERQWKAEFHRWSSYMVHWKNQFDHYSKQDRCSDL

| Compound | Area-% Fingerprint of test solution after 120 minutes [1, 7] | Area-% Fingerprint of test solution prior to incubation ([1]; prior to incubation) | HPLC peaks in the cells ([2]; time 0 min) | HPLC peaks in the cells ([2]; time 30 min) | HPLC peaks in the cells ([2]; time 60 min) | HPLC peaks in the cells ([2]; time 120 min) | also measured |
| --- | --- | --- | --- | --- | --- | --- | --- |
| neapolitanosyl-glucosyl-(trans)crocetin [NGTC] | 17.9 Area-% | 18.1 Area-% | not detected | not detected | not detected | not detected |  |
| CC(/C=C/C=C(\C)C(=O)O)=C\C=C\C=C(C)\C=C\C=C(/C)C(=O)O [Crocetin, 8,8′-Diapo-ψ,ψ-carotenedioic acid, reference compound] |  |  |  |  |  |  | content of test solution after 120 minutes [1, 7]: 9.77 mg/100 ml; content of test solution prior to incubation ([1]; prior to incubation, incubation medium): 9.82 mg/100 ml; Crocetin (HPLC) concentration in the cells ([2]; time 0 min): BLD (BLD = <0.01 mg/100 ml); Crocetin (HPLC) concentration in the cells ([2]; time 30 min): BLD (BLD = <0.01 mg/100 ml); Crocetin (HPLC) concentration in the cells ([2]; time 60 min): BLD (BLD = <0.01 mg/100 ml); Crocetin (HPLC) concentration in the cells ([2]; time 120 min): BLD (BLD = <0.01 mg/100 ml); solubility in aqueous alkaline solution [3]: soluble; solubility in water [3]: insoluble in water; % uptake of crocetin [4]: 0.53%; inhibition at 500 µg/mL [5, 8]: 7.5%; activity at 500 µg/mL [5, 9]: 92.5% |
| CC(/C=C/C=C(\C)C(=O)O[C@@H]1O[C@H](CO[C@@H]2O[C@H](CO)[C@@H](O)[C@H](O)[C@H]2O)[C@@H](O)[C@H](O)[C@H]1O)=C\C=C\C=C(C)\C=C\C=C(/C)C(=O)O[C@@H]1O[C@H](CO[C@@H]2O[C@H](CO)[C@@H](O)[C@H](O)[C@H]2O)[C@@H](O)[C@H](O)[C@H]1O [Crocin, di-gentiobiose ester of crocetin] |  |  |  |  |  |  | solubility in water [3]: very good water-solubility; activity at 500 µg/mL [5]: 52.7%; inhibition at 500 µg/mL [5]: 47.3% |
| CC(=C/C=C/C=C(C)/C=C/C=C(/C)C(=O)O[C@@H]1O[C@H](CO[C@@H]2O[C@H](CO)[C@@H](O)[C@H](O)[C@H]2O)[C@@H](O)[C@H](O)[C@H]1O)/C=C/C=C(\C)C(=O)O[C@@H]1O[C@H](CO[C@@H]2O[C@H](CO)[C@@H](O)[C@H](O)[C@H]2O)[C@@H](O)[C@H](O)[C@H]1O (relative stereo) [DGCC, digentobiosyl-(cis)crocetin] | 15.2 Area-% | 16.6 Area-% | not detected | not detected | not detected | not detected |  |
| CCOC(=O)CCC(=O)O [Monoester] |  |  |  |  |  |  | solubility in water [6]: good solubility in water; Inhibition of AChE activity % [5, 8]: 89.2%; AChE activity % [5, 9]: 10.8% |
| CC(/C=C/C=C(\C)C(=O)O[C@@H]1O[C@H](CO[C@@H]2O[C@H](CO)[C@@H](O)[C@H](O)[C@H]2O)[C@@H](O)[C@H](O)[C@H]1O)=C\C=C\C=C(C)\C=C\C=C(/C)C(=O)O[C@@H]1O[C@H](CO[C@@H]2O[C@H](CO)[C@@H](O)[C@H](O)[C@H]2O)[C@@H](O)[C@H](O)[C@H]1O (relative stereo) [DGTC, digentobiosyl-(trans)crocetin] | 43.4 Area-% | 45.3 Area-% | not detected | not detected | not detected | not detected |  |
| CC(/C=C/C=C(\C)C(=O)O)=C\C=C\C=C(C)\C=C\C=C(/C)C(=O)O[C@@H]1O[C@H](CO[C@@H]2O[C@H](CO)[C@@H](O)[C@H](O)[C@H]2O)[C@@H](O)[C@H](O)[C@H]1O (relative stereo) [GTC, gentobisyl-(trans)crocetin] | 10.3 Area-% | 9.7 Area-% | not detected | not detected | not detected | not detected |  |
